According to the NIST ThermoML archive (doi:10.1016/j.jct.2015.08.014):
± gives the expanded uncertainty stated by the source.

Experiment: xn = mol fraction of the nth substance listed
Details: 100 kPa, Liquid; for electrical conductivity: Alternating current cell with electrodes; for mass density: Vibrating tube method; for viscosity: Capillary tube (Ostwald / Ubbelohde) method

SMILES: CCCC[N+]1(C)CCCC1.N#CN=C=[N-] [1-butyl-1-methylpyrrolidinium dicyanamide] + O=C1CCCO1
- electrical conductivity (293.15 K, Frequency=0.00652174 MHz, x1 = 0.1449): 2.31 ± 0.024 S/m
- electrical conductivity (293.15 K, Frequency=0.00652174 MHz, x1 = 0.1859): 2.45 ± 0.025 S/m
- electrical conductivity (293.15 K, Frequency=0.00652174 MHz, x1 = 0.2493): 2.37 ± 0.024 S/m
- electrical conductivity (293.15 K, Frequency=0.00652174 MHz, x1 = 0.3029): 2.29 ± 0.023 S/m
- electrical conductivity (293.15 K, Frequency=0.00652174 MHz, x1 = 0.3845): 2.116 ± 0.021 S/m
- electrical conductivity (293.15 K, Frequency=0.00652174 MHz, x1 = 0.4985): 1.84 ± 0.019 S/m
- electrical conductivity (293.15 K, Frequency=0.00652174 MHz, x1 = 0.6954): 1.46 ± 0.015 S/m
- electrical conductivity (293.15 K, Frequency=0.00652174 MHz, x1 = 0.9013): 1.19 ± 0.012 S/m
- electrical conductivity (293.15 K, Frequency=0.00652174 MHz, x1 = 1): 1.123 ± 0.011 S/m
- electrical conductivity (293.15 K, Frequency=0.00694444 MHz, x1 = 0.0463): 1.37 ± 0.024 S/m
- electrical conductivity (293.15 K, Frequency=0.00694444 MHz, x1 = 0.0987): 2.05 ± 0.025 S/m
- electrical conductivity (293.15 K, Frequency=0.00694444 MHz, x1 = 0.1449): 2.31 ± 0.024 S/m
- electrical conductivity (293.15 K, Frequency=0.00694444 MHz, x1 = 0.1859): 2.45 ± 0.025 S/m
- electrical conductivity (293.15 K, Frequency=0.00694444 MHz, x1 = 0.2493): 2.37 ± 0.024 S/m
- electrical conductivity (293.15 K, Frequency=0.00694444 MHz, x1 = 0.3029): 2.29 ± 0.023 S/m
- electrical conductivity (293.15 K, Frequency=0.00694444 MHz, x1 = 0.3845): 2.116 ± 0.021 S/m
- electrical conductivity (293.15 K, Frequency=0.00694444 MHz, x1 = 0.4985): 1.84 ± 0.019 S/m
- electrical conductivity (293.15 K, Frequency=0.00694444 MHz, x1 = 0.6954): 1.46 ± 0.015 S/m
- electrical conductivity (293.15 K, Frequency=0.00694444 MHz, x1 = 0.9013): 1.19 ± 0.012 S/m
- electrical conductivity (293.15 K, Frequency=0.00694444 MHz, x1 = 1): 1.123 ± 0.011 S/m
- electrical conductivity (293.15 K, Frequency=0.0075 MHz, x1 = 0.0463): 1.37 ± 0.024 S/m
- electrical conductivity (293.15 K, Frequency=0.0075 MHz, x1 = 0.0987): 2.05 ± 0.025 S/m
- electrical conductivity (293.15 K, Frequency=0.0075 MHz, x1 = 0.1449): 2.31 ± 0.024 S/m
- electrical conductivity (293.15 K, Frequency=0.0075 MHz, x1 = 0.1859): 2.45 ± 0.025 S/m
- electrical conductivity (293.15 K, Frequency=0.0075 MHz, x1 = 0.2493): 2.37 ± 0.024 S/m
- electrical conductivity (293.15 K, Frequency=0.0075 MHz, x1 = 0.3029): 2.29 ± 0.023 S/m
- electrical conductivity (293.15 K, Frequency=0.0075 MHz, x1 = 0.3845): 2.116 ± 0.021 S/m
- electrical conductivity (293.15 K, Frequency=0.0075 MHz, x1 = 0.4985): 1.84 ± 0.019 S/m
- electrical conductivity (293.15 K, Frequency=0.0075 MHz, x1 = 0.6954): 1.46 ± 0.015 S/m
- electrical conductivity (293.15 K, Frequency=0.0075 MHz, x1 = 0.9013): 1.19 ± 0.012 S/m
- electrical conductivity (293.15 K, Frequency=0.0075 MHz, x1 = 1): 1.123 ± 0.011 S/m
- electrical conductivity (293.15 K, Frequency=0.008 MHz, x1 = 0.0463): 1.37 ± 0.024 S/m
- electrical conductivity (293.15 K, Frequency=0.008 MHz, x1 = 0.0987): 2.05 ± 0.025 S/m
- electrical conductivity (293.15 K, Frequency=0.008 MHz, x1 = 0.1449): 2.31 ± 0.024 S/m
- electrical conductivity (293.15 K, Frequency=0.008 MHz, x1 = 0.1859): 2.45 ± 0.025 S/m
- electrical conductivity (293.15 K, Frequency=0.008 MHz, x1 = 0.2493): 2.37 ± 0.024 S/m
- electrical conductivity (293.15 K, Frequency=0.008 MHz, x1 = 0.3029): 2.29 ± 0.023 S/m
- electrical conductivity (293.15 K, Frequency=0.008 MHz, x1 = 0.3845): 2.116 ± 0.021 S/m
- electrical conductivity (293.15 K, Frequency=0.008 MHz, x1 = 0.4985): 1.84 ± 0.019 S/m
- electrical conductivity (293.15 K, Frequency=0.008 MHz, x1 = 0.6954): 1.46 ± 0.015 S/m
- electrical conductivity (293.15 K, Frequency=0.008 MHz, x1 = 0.9013): 1.19 ± 0.012 S/m
- electrical conductivity (293.15 K, Frequency=0.008 MHz, x1 = 1): 1.123 ± 0.011 S/m
- electrical conductivity (293.15 K, Frequency=0.00857143 MHz, x1 = 0.0463): 1.37 ± 0.024 S/m
- electrical conductivity (293.15 K, Frequency=0.00857143 MHz, x1 = 0.0987): 2.05 ± 0.025 S/m
- electrical conductivity (293.15 K, Frequency=0.00857143 MHz, x1 = 0.1449): 2.31 ± 0.024 S/m
- electrical conductivity (293.15 K, Frequency=0.00857143 MHz, x1 = 0.1859): 2.45 ± 0.025 S/m
- electrical conductivity (293.15 K, Frequency=0.00857143 MHz, x1 = 0.2493): 2.38 ± 0.024 S/m
- electrical conductivity (293.15 K, Frequency=0.00857143 MHz, x1 = 0.3029): 2.3 ± 0.023 S/m
- electrical conductivity (293.15 K, Frequency=0.00857143 MHz, x1 = 0.3845): 2.12 ± 0.022 S/m
- electrical conductivity (293.15 K, Frequency=0.00857143 MHz, x1 = 0.4985): 1.84 ± 0.019 S/m
- electrical conductivity (293.15 K, Frequency=0.00857143 MHz, x1 = 0.6954): 1.46 ± 0.015 S/m
- electrical conductivity (293.15 K, Frequency=0.00857143 MHz, x1 = 0.9013): 1.19 ± 0.012 S/m
- electrical conductivity (293.15 K, Frequency=0.00857143 MHz, x1 = 1): 1.123 ± 0.011 S/m
- electrical conductivity (293.15 K, Frequency=0.00892857 MHz, x1 = 0.0463): 1.37 ± 0.024 S/m
- electrical conductivity (293.15 K, Frequency=0.00892857 MHz, x1 = 0.0987): 2.05 ± 0.025 S/m
- electrical conductivity (293.15 K, Frequency=0.00892857 MHz, x1 = 0.1449): 2.31 ± 0.024 S/m
- electrical conductivity (293.15 K, Frequency=0.00892857 MHz, x1 = 0.1859): 2.45 ± 0.025 S/m
- electrical conductivity (293.15 K, Frequency=0.00892857 MHz, x1 = 0.2493): 2.38 ± 0.024 S/m
- electrical conductivity (293.15 K, Frequency=0.00892857 MHz, x1 = 0.3029): 2.3 ± 0.023 S/m
- electrical conductivity (293.15 K, Frequency=0.00892857 MHz, x1 = 0.3845): 2.12 ± 0.022 S/m
- electrical conductivity (293.15 K, Frequency=0.00892857 MHz, x1 = 0.4985): 1.84 ± 0.019 S/m
- electrical conductivity (293.15 K, Frequency=0.00892857 MHz, x1 = 0.6954): 1.46 ± 0.015 S/m
- electrical conductivity (293.15 K, Frequency=0.00892857 MHz, x1 = 0.9013): 1.19 ± 0.012 S/m
- electrical conductivity (293.15 K, Frequency=0.00892857 MHz, x1 = 1): 1.124 ± 0.011 S/m
- electrical conductivity (293.15 K, Frequency=0.00961538 MHz, x1 = 0.0463): 1.37 ± 0.024 S/m
- electrical conductivity (293.15 K, Frequency=0.00961538 MHz, x1 = 0.0987): 2.05 ± 0.025 S/m
- electrical conductivity (293.15 K, Frequency=0.00961538 MHz, x1 = 0.1449): 2.31 ± 0.024 S/m
- electrical conductivity (293.15 K, Frequency=0.00961538 MHz, x1 = 0.1859): 2.45 ± 0.025 S/m
- electrical conductivity (293.15 K, Frequency=0.00961538 MHz, x1 = 0.2493): 2.38 ± 0.024 S/m
- electrical conductivity (293.15 K, Frequency=0.00961538 MHz, x1 = 0.3029): 2.3 ± 0.023 S/m
- electrical conductivity (293.15 K, Frequency=0.00961538 MHz, x1 = 0.3845): 2.12 ± 0.022 S/m
- electrical conductivity (293.15 K, Frequency=0.00961538 MHz, x1 = 0.4985): 1.84 ± 0.019 S/m
- electrical conductivity (293.15 K, Frequency=0.00961538 MHz, x1 = 0.6954): 1.46 ± 0.015 S/m
- electrical conductivity (293.15 K, Frequency=0.00961538 MHz, x1 = 0.9013): 1.19 ± 0.012 S/m
- electrical conductivity (293.15 K, Frequency=0.00961538 MHz, x1 = 1): 1.124 ± 0.011 S/m
- electrical conductivity (293.15 K, Frequency=0.01 MHz, x1 = 0.0463): 1.37 ± 0.024 S/m
- electrical conductivity (293.15 K, Frequency=0.01 MHz, x1 = 0.0987): 2.05 ± 0.025 S/m
- electrical conductivity (293.15 K, Frequency=0.01 MHz, x1 = 0.1449): 2.31 ± 0.024 S/m
- electrical conductivity (293.15 K, Frequency=0.01 MHz, x1 = 0.1859): 2.45 ± 0.025 S/m
- electrical conductivity (293.15 K, Frequency=0.01 MHz, x1 = 0.2493): 2.38 ± 0.024 S/m
- electrical conductivity (293.15 K, Frequency=0.01 MHz, x1 = 0.3029): 2.3 ± 0.023 S/m
- electrical conductivity (293.15 K, Frequency=0.01 MHz, x1 = 0.3845): 2.12 ± 0.022 S/m
- electrical conductivity (293.15 K, Frequency=0.01 MHz, x1 = 0.4985): 1.84 ± 0.019 S/m
- electrical conductivity (293.15 K, Frequency=0.01 MHz, x1 = 0.6954): 1.46 ± 0.015 S/m
- electrical conductivity (293.15 K, Frequency=0.01 MHz, x1 = 0.9013): 1.19 ± 0.012 S/m
- electrical conductivity (293.15 K, Frequency=0.01 MHz, x1 = 1): 1.124 ± 0.011 S/m
- mass density (293.15 K, x1 = 0.0987): 1107.56 ± 8.9 kg/m3
- mass density (293.15 K, x1 = 0.1859): 1091.31 ± 8.7 kg/m3
- mass density (293.15 K, x1 = 0.3029): 1073.37 ± 8.6 kg/m3
- mass density (293.15 K, x1 = 0.4985): 1050.78 ± 8.4 kg/m3
- mass density (293.15 K, x1 = 0.6954): 1034.23 ± 8.3 kg/m3
- mass density (293.15 K, x1 = 0.9013): 1021.32 ± 8.2 kg/m3
- mass density (293.15 K, x1 = 1): 1016.28 ± 8.2 kg/m3
- electrical conductivity (298.15 K, x1 = 0.0463): 1.47 ± 0.026 S/m
- electrical conductivity (298.15 K, x1 = 0.0987): 2.21 ± 0.027 S/m
- electrical conductivity (298.15 K, x1 = 0.1449): 2.51 ± 0.026 S/m
- electrical conductivity (298.15 K, x1 = 0.1859): 2.67 ± 0.027 S/m
- electrical conductivity (298.15 K, x1 = 0.2493): 2.613 ± 0.026 S/m
- electrical conductivity (298.15 K, x1 = 0.3029): 2.54 ± 0.026 S/m
- electrical conductivity (298.15 K, x1 = 0.3845): 2.36 ± 0.024 S/m
- electrical conductivity (298.15 K, x1 = 0.4985): 2.08 ± 0.021 S/m
- electrical conductivity (298.15 K, x1 = 0.6954): 1.68 ± 0.017 S/m
- electrical conductivity (298.15 K, x1 = 0.9013): 1.39 ± 0.014 S/m
- electrical conductivity (298.15 K, x1 = 1): 1.317 ± 0.013 S/m
- viscosity (298.15 K, x1 = 0.0987): 2.8 ± 0.06 mPa·s
- viscosity (298.15 K, x1 = 0.1859): 4.02 ± 0.09 mPa·s
- viscosity (298.15 K, x1 = 0.3029): 6.19 ± 0.14 mPa·s
